Laboratory results reported in patent publication US5004833A, “KS-501 derivatives” (Kyowa Hakko Kogyo Co., Ltd., priority 1988, dated 1991).
In brackets after ≈: the same amount, converted by molar mass. Where two headings read alike, the source gives them in different places.

Tested on: washed platelet
Assay: Effect on platelet aggregation (washed platelets stimulated with thrombin or platelet-activating factor, Born method)
Assay type: cell-based, white rabbit
Settings: for IC50: Oryctolagus cuniculus, 0.05 h, 3 min incubation, 37° C.
Experimental: 8.5 vol of blood was collected from the carotid arteries of a white rabbit, and placed in a tube containing 1.5 vol of a citrate-dextrose solution (71 mM citric acid, 85 mM sodium citrate and 111 mM dextrose). The thus obtained blood was centrifuged at 200 xg for 15 minutes to obtain platelet-rich plasma (PRP). This PRP was centrifuged at 650×g for 10 minutes to obtain platelet precipitates. After washing with Ca^++ -free Tyrode's solution containing 2 mM ethylenebis(oxyethylenenitrilo)tetraacetic acid (hereinafter referred to as EGTA), the platelet precipitates were centrifuged again at 650×g for 10 minutes for washing. The resulting platelet precipitates were suspended in Ca^++ -free Tyrode's solution containing 0.25% bovine serum albumin to reach a density of 5×10^8 cells/ml. After allowing to stand for about 30 minutes, 1 mM CaCl2 or 1 mM EGTA was added to the suspension of the washed platelet. The mixture was allowed to stand for further 30 minutes, and then platelet aggregation was measured.
The platelet aggregation was measured with an aggregometer, ACGRETEC TE-500 (product of Erma Optical Co., Ltd.) to which the Born method was applied.
First, 10 μl portions of a test compound solution were added to 0.2 ml portions of the suspension of the washed platelet, while stirring at 1,000 rpm and at 37° C. After incubation at 37° C. for 3 minutes, 10 μl portions of a stimulating agent thrombin (final concentration : 0.05 U/ml) or platelet-activating factor (final concentration: 10^-10 M) were added thereto, respectively to initiate the reaction. The rate of platelet aggregation inhibition of the test compound were calculated from the maximum aggregation rate obtained by the use of the test compound and the maximum aggregation rate obtained by use of only the solvent used for dissolving the test compound, according to the following equation. The effect of the test compound was determined as the drug concentration which gave the inhibition rate of 50%. [formula] A: maximum aggregation rate in use of the solvent alone B: maximum aggregation rate in use of the test compound

IC50 (stimulating agent platelet-activating factor, final concentration 10^-10 M, read-out: IC50 (platelet aggregation inhibition, stimulating agent platelet-activating factor)): 45 mg/L (≈ 102 µM)
IC50 (Platelet, stimulating agent thrombin, final concentration 0.05 U/ml, read-out: IC50 (platelet aggregation inhibition, stimulating agent thrombin)): 72 mg/L (≈ 163 µM)
Structure (SMILES): CCCCCCCc1cc(O)cc(OC(=O)c2c(O)cc(O)cc2CCCCCCC)c1 [Compound 4]
inhibition of platelet aggregation, in words (stimulated with thrombin and platelet-activating factor): inhibited platelet aggregation
